Test results from US20250154141A1 (University of Florida Research Foundation, Incorporated, priority 2021, published 2025).
Read-outs that look alike come from different tables or passages of the source.

Experiments:
[1] = tested on: MOLT-4; experiment: Cell viability assay (MTS) in MOLT-4 cells; type: cell-based; conditions: Homo sapiens, MOLT-4, 48 hr, MTS, read-out: Anti-Cancer Activity IC50 (48 hr) MOLT-4
Experimental: (§1) Acute lymphoblastic leukemia cells (MOLT-4 and RS4; 11) were incubated with increasing concentrations of Bcl-xL degraders for 48 h. Cell viability was measured by tetrazolium-based MTS assay.

[2] = tested on: RS4; 11; experiment: Cell viability assay (MTS) in RS4; 11 cells; type: cell-based; conditions: Homo sapiens, RS4-11, 48 hr, MTS, read-out: Anti-Cancer Activity IC50 (48 hr) RS4, 11
Experimental: as §1

Row | IC50 ([1]; Table 2) [nM] | IC50 ([2]; Table 2) [nM] | IC50 ([1]; Table 2A) [nM] | IC50 ([2]; Table 2A) [nM] | SMILES
1 | < 20 | < 20 |  |  | Cc1ncsc1-c1ccc([C@H](C)NC(=O)[C@@H]2C[C@@H](O)CN2C(=O)[C@@H](NC(=O)CCCCCCS(=O)(=O)N2CCN(C[C@]3(C)CCC(c4ccc(Cl)cc4)=C(CN4CCN(c5ccc(C(=O)NS(=O)(=O)c6ccc(N[C@H](CCN7CCCOCC7)CSc7ccccc7)c(S(=O)(=O)C(F)(F)F)c6)cc5)CC4)C3)CC2)C(C)(C)C)cc1 [Compound 96, (2S,4R)-1-((S)-2-(7-((4-(((R)-6-((4-(4-(((4-(((R)-4-(1,4-oxazepan-4-yl)-1-(phenylthio)butan-2-yl)amino)-3-((trifluoromethyl)sulfonyl)phenyl)sulfonyl)carbamoyl)phenyl)piperazin-1-yl)methyl)-4′-chloro-4-methyl-2,3,4,5-tetrahydro-[1,1′-biphenyl]-4-yl)methyl)piperazin-1-yl)sulfonyl)heptanamido)-3,3-dimethylbutanoyl)-4-hydroxy-N—((S)-1-(4-(4-methylthiazol-5-yl)phenyl)ethyl)pyrrolidine-2-carboxamide]
2 | 100 to 500 | 20 to 100 |  |  | Cc1ncsc1-c1ccc([C@H](C)NC(=O)[C@@H]2C[C@@H](O)CN2C(=O)[C@@H](NC(=O)COCCOCc2cn(CC3(C)CCC(c4ccc(Cl)cc4)=C(CN4CCN(c5ccc(C(=O)NS(=O)(=O)c6ccc(N[C@H](CCN7CCOCC7)CSc7ccccc7)c(S(=O)(=O)C(F)(F)F)c6)cc5)CC4)C3)nn2)C(C)(C)C)cc1 (stereo partly drawn) [Compound 21, (2S,4R)-1-((2S)-2-(2-(2-((1-((4′-chloro-4-methyl-6-((4-(4-(((4-(((R)-4-morpholino-1-(phenylthio)butan-2-yl)amino)-3-((trifluoromethyl)sulfonyl)phenyl)sulfonyl)carbamoyl)phenyl)piperazin-1-yl)methyl)-2,3,4,5-tetrahydro-[1,1′-biphenyl]-4-yl)methyl)-1H-1,2,3-triazol-4-yl)methoxy)ethoxy)acetamido)-3,3-dimethylbutanoyl)-4-hydroxy-N—((S)-1-(4-(4-methylthiazol-5-yl)phenyl)ethyl)pyrrolidine-2-carboxamide]
3 | 20 to 100 | 20 to 100 |  |  | Cc1ncsc1-c1ccc([C@H](C)NC(=O)[C@@H]2C[C@@H](O)CN2C(=O)[C@@H](NC(=O)CCCNC(=O)c2ccc(N3CCN(CC4(C)CCC(c5ccc(Cl)cc5)=C(CN5CCN(c6ccc(C(=O)NS(=O)(=O)c7ccc(N[C@H](CCN8CCOCC8)CSc8ccccc8)c(S(=O)(=O)C(F)(F)F)c7)cc6)CC5)C4)CC3)cn2)C(C)(C)C)cc1 (some centres unmarked) [Compound 4]
4 | 100 to 500 | 20 to 100 |  |  | Cc1ncsc1-c1ccc([C@H](C)NC(=O)[C@@H]2C[C@@H](O)CN2C(=O)[C@@H](NC(=O)CCCCCCC(=O)N2CCN(CC3(C)CCC(c4ccc(Cl)cc4)=C(CN4CCN(c5ccc(C(=O)NS(=O)(=O)c6ccc(N[C@H](CCN7CCC(CO)CC7)CSc7ccccc7)c([N+](=O)[O-])c6)cc5)CC4)C3)CC2)C(C)(C)C)cc1 (stereo partly drawn) [Compound 47, (2S,4R)-1-((2S)-2-(8-(4-((4′-chloro-6-((4-(4-(((4-(((R)-4-(4-(hydroxymethyl)piperidin-1-yl)-1-(phenylthio)butan-2-yl)amino)-3-nitrophenyl)sulfonyl)carbamoyl)phenyl)piperazin-1-yl)methyl)-4-methyl-2,3,4,5-tetrahydro-[1,1′-biphenyl]-4-yl)methyl)piperazin-1-yl)-8-oxooctanamido)-3,3-dimethylbutanoyl)-4-hydroxy-N—((S)-1-(4-(4-methylthiazol-5-yl)phenyl)ethyl)pyrrolidine-2-carboxamide]
5 | < 20 | 20 to 100 |  |  | Cc1ncsc1-c1ccc([C@H](C)NC(=O)[C@@H]2C[C@@H](O)CN2C(=O)[C@@H](NC(=O)CCCCCNC(=O)c2cnc(N3CCN(C[C@]4(C)CCC(c5ccc(Cl)cc5)=C(CN5CCN(c6ccc(C(=O)NS(=O)(=O)c7ccc(N[C@H](CCN8CCCOCC8)CSc8ccccc8)c(S(=O)(=O)C(F)(F)F)c7)cc6)CC5)C4)CC3)nc2)C(C)(C)C)cc1 [Compound 78]
6 | 100 to 500 | 20 to 100 |  |  | Cc1ncsc1-c1ccc([C@H](C)NC(=O)[C@@H]2C[C@@H](O)CN2C(=O)[C@@H](NC(=O)CNC(=O)c2ccc(N3CCN(CCN(C)CC4(C)CCC(c5ccc(Cl)cc5)=C(CN5CCN(c6ccc(C(=O)NS(=O)(=O)c7ccc(N[C@H](CCN8CCOCC8)CSc8ccccc8)c(S(=O)(=O)C(F)(F)F)c7)cc6)CC5)C4)CC3)nc2)C(C)(C)C)cc1 (some centres unmarked) [Compound 7]
7 | 20 to 100 | 100 to 500 |  |  | Cc1ncsc1-c1ccc([C@H](C)NC(=O)[C@@H]2C[C@@H](O)CN2C(=O)[C@@H](NC(=O)CNC(=O)c2ccc(N3CCN(CC4(C)CCC(c5ccc(Cl)cc5)=C(CN5CCN(c6ccc(C(=O)NS(=O)(=O)c7ccc(N[C@H](CCN8CCOCC8)CSc8ccccc8)c(S(=O)(=O)C(F)(F)F)c7)cc6)CC5)C4)CC3)nc2)C(C)(C)C)cc1 (some centres unmarked) [Compound 1]
8 | < 20 | < 20 |  |  | Cc1ncsc1-c1ccc([C@H](C)NC(=O)[C@@H]2C[C@@H](O)CN2C(=O)[C@@H](NC(=O)CCCCC(=O)N2CCC(C3CCN(CC4(C)CCC(c5ccc(Cl)cc5)=C(CN5CCN(c6ccc(C(=O)NS(=O)(=O)c7ccc(N[C@H](CCN8C[C@H]9C[C@@H]8CO9)CSc8ccccc8)c([N+](=O)[O-])c7)cc6)CC5)C4)CC3)CC2)C(C)(C)C)cc1 (some centres unmarked) [Compound 54]
9 | < 20 | 20 to 100 |  |  | Cc1ncsc1-c1ccc([C@H](C)NC(=O)[C@@H]2C[C@@H](O)CN2C(=O)[C@@H](NC(=O)CCCCCCC(=O)N2CCN(C[C@]3(C)CCC(c4ccc(Cl)cc4)=C(CN4CCN(c5ccc(C(=O)NS(=O)(=O)c6ccc(N[C@H](CCN7CCCOCC7)CSc7ccccc7)c(S(=O)(=O)C(F)(F)F)c6)cc5)CC4)C3)C[C@@H]2C)C(C)(C)C)cc1 [Compound 82]
10 | 100 to 500 | 100 to 500 |  |  | Cc1ncsc1-c1ccc([C@H](C)NC(=O)[C@@H]2C[C@@H](O)CN2C(=O)[C@@H](NC(=O)CCCCCOCc2cn(CCCC(=O)NCC3(C)CCC(c4ccc(Cl)cc4)=C(CN4CCN(c5ccc(C(=O)NS(=O)(=O)c6ccc(N[C@H](CCN7CCOCC7)CSc7ccccc7)c(S(=O)(=O)C(F)(F)F)c6)cc5)CC4)C3)nn2)C(C)(C)C)cc1 (some centres unmarked) [Compound 22]
11 | 500 to 10000 | 20 to 100 |  |  | Cc1ncsc1-c1ccc([C@H](C)NC(=O)[C@@H]2C[C@@H](O)CN2C(=O)[C@@H](NC(=O)CCCCCCC(=O)N2CCN(C[C@]3(C)CCC(c4ccc(Cl)cc4)=C(CN4CCN(c5ccc(C(=O)NS(=O)(=O)c6ccc(N[C@H](CCN7CCOCC78CC8)CSc7ccccc7)c(S(=O)(=O)C(F)(F)F)c6)cc5)CC4)C3)CC2)C(C)(C)C)cc1 [Compound 92]
12 |  |  | < 20 | < 20 | Cc1ncsc1-c1ccc([C@H](C)NC(=O)[C@@H]2C[C@@H](O)CN2C(=O)[C@@H](NC(=O)CN(C)CC(=O)N2CCC(C3CCN(C[C@]4(C)CCC(c5ccc(Cl)cc5)=C(CN5CCN(c6ccc(C(=O)NS(=O)(=O)c7ccc(N[C@H](CCN8CCCOCC8)CSc8ccccc8)c(S(=O)(=O)C(F)(F)F)c7)cc6)CC5)C4)CC3)CC2)C(C)(C)C)cc1 [Compound 118]
13 | 100 to 500 | 20 to 100 |  |  | Cc1ncsc1-c1ccc([C@H](C)NC(=O)[C@@H]2C[C@@H](O)CN2C(=O)[C@@H](NC(=O)CCCCCCCCC(=O)N2CCN(CCC3(C)CCC(c4ccc(Cl)cc4)=C(CN4CCN(c5ccc(C(=O)NS(=O)(=O)c6ccc(N[C@H](CCN7CCOCC7)CSc7ccccc7)c(S(=O)(=O)C(F)(F)F)c6)cc5)CC4)C3)CC2)C(C)(C)C)cc1 (stereo partly drawn) [Compound 30, (2S,4R)-1-((2S)-2-(10-(4-(2-(4′-chloro-4-methyl-6-((4-(4-(((4-(((R)-4-morpholino-1-(phenylthio)butan-2-yl)amino)-3-((trifluoromethyl)sulfonyl)phenyl)sulfonyl)carbamoyl)phenyl)piperazin-1-yl)methyl)-2,3,4,5-tetrahydro-[1,1′-biphenyl]-4-yl)ethyl)piperazin-1-yl)-10-oxodecanamido)-3,3-dimethylbutanoyl)-4-hydroxy-N—((S)-1-(4-(4-methylthiazol-5-yl)phenyl)ethyl)pyrrolidine-2-carboxamide]
14 | < 20 | < 20 |  |  | Cc1ncsc1-c1ccc([C@H](C)NC(=O)[C@@H]2C[C@@H](O)CN2C(=O)[C@@H](NC(=O)CCCCCCC(=O)N2CCN(C[C@]3(C)CCC(c4ccc(Cl)cc4)=C(CN4CCN(c5ccc(C(=O)NS(=O)(=O)c6ccc(N[C@H](CCN7CC8CCC7C8)CSc7ccccc7)c(S(=O)(=O)C(F)(F)F)c6)cc5)CC4)C3)CC2)C(C)(C)C)cc1 (some centres unmarked) [Compound 67]
15 | < 20 | < 20 |  |  | Cc1ncsc1-c1ccc([C@H](C)NC(=O)[C@@H]2C[C@@H](O)CN2C(=O)[C@@H](NC(=O)CN2CCN(CC(=O)N3CCN(CC4(C)CCC(c5ccc(Cl)cc5)=C(CN5CCN(c6ccc(C(=O)NS(=O)(=O)c7ccc(N[C@H](CCN8CCOCC8)CSc8ccccc8)c(S(=O)(=O)C(F)(F)F)c7)cc6)CC5)C4)CC3)CC2)C(C)(C)C)cc1 (some centres unmarked) [Compound 25]
16 | < 20 | < 20 |  |  | Cc1ncsc1-c1ccc([C@H](C)NC(=O)[C@@H]2C[C@@H](O)CN2C(=O)[C@@H](NC(=O)CCCCCCC(=O)N2CCN(C[C@]3(C)CCC(c4ccc(Cl)cc4)=C(CN4CCN(c5ccc(C(=O)NS(=O)(=O)c6ccc(N[C@H](CCN7CCCOCC7)CSc7ccccc7)c(S(=O)(=O)C(F)(F)F)c6)cc5)CC4)C3)C[C@H]2C)C(C)(C)C)cc1 [Compound 81]
